The test concerns the target T1, human NK-2 receptor (Homo sapiens, UniProt P21452).
T1 construct: expressed in transfected cells; host or cells: CHO (Chinese hamster ovary) cells, membranes
T1 sequence (P21452 1-398): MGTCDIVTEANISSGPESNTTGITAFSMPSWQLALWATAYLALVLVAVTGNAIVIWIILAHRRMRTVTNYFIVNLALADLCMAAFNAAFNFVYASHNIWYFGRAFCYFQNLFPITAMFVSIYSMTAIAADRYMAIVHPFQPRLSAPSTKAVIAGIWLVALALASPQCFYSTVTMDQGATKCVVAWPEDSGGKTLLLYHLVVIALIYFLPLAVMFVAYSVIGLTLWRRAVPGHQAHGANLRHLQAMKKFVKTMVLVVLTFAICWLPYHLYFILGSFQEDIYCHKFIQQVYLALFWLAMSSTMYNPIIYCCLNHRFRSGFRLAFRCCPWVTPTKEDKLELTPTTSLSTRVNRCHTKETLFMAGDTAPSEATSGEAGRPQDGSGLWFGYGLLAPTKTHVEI
As to the kind of experiment: binding test, affinity for the human NK-2 receptor, competition with [125I]NKA on transfected CHO cell membranes. The settings on record: CHO cell membranes transfected with NK-2 receptor of human ileum; [125I]NKA 100 pM; 30 min, 20° C. As to the method: The evaluation of the antagonist activity on NK-2 receptors has been assessed by binding and functional tests according to that already described in literature in relation to NK-2 antagonists.
The test substances have been tested within a concentration range from 0.01 nM to 10 nM. At the end of the incubation time (30 min, 20° C.) the samples have been filtered and radioactivity has been determined using a gamma-counter.

Structures can show the parent of a compound that is named as a salt.

The results in this text go back to patent publication US7273856B2, “Linear basic compounds having NK-2 antagonist activity and formulations thereof” (Menarini Ricerche S.P.A., priority 2001, dated 2007).

As usually defined, the Ki is a dissociation constant, usually derived from enzyme kinetics or from competition with a known ligand. Lower therefore signals tighter binding. With `O=C(NC1(C(=O)N[C@H](Cc2ccccc2)C(=O)NCC2CCN(CC3CCOCC3)CC2)CCCC1)c1cc2cccc(Br)c2s1` [Example 131, 7-Bromo-benzo[b]thiophene-2-carboxylic acid [1-(2-phenyl-1R-{[1-(tetrahydro-pyran-4-ylmethyl)-piperidin-4-ylmethyl]-carbamoyl}-ethylcarbamoyl)-cyclopentyl]-amide], the inhibitory constant (Ki) is 0.0398 nM. This lies in the picomolar range. Compound `O=C(NC1(C(=O)N[C@H](Cc2ccccc2)C(=O)NCC2CCN(CC3CCOCC3)CC2)CCCC1)c1ccc2ccccc2c1` [Example 151, Naphthalene-2-carboxylic acid [1-(2-phenyl-1R-{[1-(tetrahydro-pyran-4-ylmethyl)-piperidin-4-ylmethyl]-carbamoyl}-ethylcarbamoyl)-cyclopentyl]-amide] gave an inhibitory constant (Ki) of 1.26 nM. As to `NC1(C(=O)N2CCC(CNC(=O)[C@@H](Cc3ccccc3)NC(=O)C3(NC(=O)c4cc5ccccc5s4)CCCC3)CC2)CCCCC1` [Example 96, Benzo[b]thiophene-2-carboxylic acid [1-(1(R)-{[1-(1-aminocyclohexanecarbonyl)-piperidin-4-ylmethyl]-carbamoyl}-2-phenyl-ethylcarbamoyl)-cyclopentyl]-amide TFA salt], the affinity, expressed as Ki, was 0.1 nM. This Ki is about 13-fold lower than that of the compound before. Compound `N[C@@H]1CCCC[C@H]1NC(=O)[C@@H]1C[C@@H](NC(=O)[C@@H](Cc2ccccc2)NC(=O)C2(NC(=O)c3cc4ccccc4s3)CCCCC2)CN1` [Example 27, N^γ{N^α[N^α(benzo[b]thiophen-2-ylcarbonyl)-1-aminocyclohexane-1-carboxy]-D-phenylalanil}-(L-(4R)amino-proline-N-(1R,2R)-aminocyclohexyl) amide] had a Ki of 0.0631 nM. For `COc1ccc2oc(C(=O)NC3(C(=O)N[C@H](Cc4ccccc4)C(=O)NCC4CCN(CC5CCOCC5)CC4)CCCC3)cc2c1` [Example 146, 5-Methoxy-benzofuran-2-carboxylic acid [1-(2-phenyl-1-{[1R-(tetrahydro-pyran-4-ylmethyl)-piperidin-4-ylmethyl]-carbamoyl}-ethylcarbamoyl)-cyclopentyl]-amide], the affinity, expressed as Ki, was 0.398 nM. As to `COc1ccc2cc(C(=O)NC3(C(=O)N[C@H](Cc4ccccc4)C(=O)NCC4CCN(CC5CCOCC5)CC4)CCCC3)ccc2c1` [Example 118, 6-Methoxy-naphthalene-2-carboxylic acid [1-(2-phenyl-1R-{[1-(tetrahydro-pyran-4-ylmethyl)-piperidin-4-ylmethyl]-carbamoyl}-ethylcarbamoyl)-cyclopentyl]-amide], the Ki was 0.316 nM. Still for that read-out and setting: the value for `CCN(CC)c1ccc2cc(C(=O)NC3(C(=O)N[C@H](Cc4ccccc4)C(=O)NCC4CCN(CC5CCOCC5)CC4)CCCC3)oc2c1` [Example 145, 6-Diethylamino-benzofuran-2-carboxylic acid [1-(2-phenyl-1-{[1R-(tetrahydro-pyran-4-ylmethyl)-piperidin-4-ylmethyl)-carbamoyl}-ethylcarbamoyl)-cyclopentyl]-amide] was 0.501 nM.

As a reminder, the pKi is the negative decadic logarithm of the Ki, by convention in mol/L. A lower pKi goes with a high Ki. As to `Cc1ccc(C=CC(=O)NC2(C(=O)N[C@H](Cc3ccccc3)C(=O)N[C@H]3CC[C@@H](C(=O)N[C@H]4CCCC[C@@H]4N)C3)CCCC2)cc1.O=C(O)C(F)(F)F` [Example 5, N^γ{N^α[N^α[4-(methyl)cynnamoyl]-1-aminocyclopentan-1-carboxy]-D-phenylalanyl}-(1R,3S)-3-aminocyclopentane-1-carboxylic-acid-N-((1S,2S)-2-aminocyclohexyl)amide trifluoroacetate salt], the pKi is 9.7. Consider `N[C@H]1CCCC[C@@H]1NC[C@@H]1CC[C@H](NC(=O)[C@@H](Cc2ccccc2)NC(=O)C2(NC(=O)c3cc4ccccc4s3)CCCC2)C1` [Example 38], for which the pKi turned out to be 9.5.

Compound `CN1CCN(C[C@@H]2CC[C@H](NC(=O)[C@@H](Cc3ccccc3)NC(=O)C3(NC(=O)c4cc5ccccc5s4)CCCC3)C2)CC1` [Example 32] gave a Ki of 1.26 nM. In other words, the single-digit nanomolar range. In the case of `O=C(NC1(C(=O)N[C@H](Cc2ccccc2)C(=O)NCCC(=O)N2CCN(c3ccccn3)CC2)CCCC1)c1ccc2cc(Br)ccc2c1` [Example 58, 6-Bromo-naphthalene-2-carboxylic acid (1-{1(R)-[3-oxo-3-(4-pyridin-2-yl-piperazin-1-yl)propylcarbamoyl]-2-phenyl-ethylcarbamoyl}-cyclopentyl)-amide TFA salt], the inhibition constant (Ki) is 3.16 nM. Take `NC1CCCCC1NC(=O)C1CCCC(NC(=O)[C@H](Cc2ccccc2)NC(=O)C2(NC(=O)c3cc4ccccc4s3)CCCC2)C1` (stereo partly drawn) [Example 26, acid-3-cis-N^γ{N^α[N^α(benzo[b]thiophen-2-ylcarbonyl)-1-aminocyclopentane-1-carboxy]-L-phenylalanil}aminocyclohexane-1-carboxylic-N-(2-cis-aminocyclohexyl) amide]: the Ki is 0.0501 nM.

Consider `N[C@H]1CCCC[C@@H]1NC(=O)[C@@H]1CC[C@H](NC(=O)[C@@H](Cc2ccccc2)NC(=O)C2(NC(=O)c3ccc(-c4ccccc4)cc3)CCCC2)C1.O=C(O)C(F)(F)F` [Example 3, N^γ{N^α[N^α(biphen-4-ylcarboxy)-1-aminocyclopentan-1-carboxy]-D-phenylalanyl}-(1R,3S)-3-aminocyclopentane-1-carboxylic-acid-N-((1S,2S)-2-aminocyclohexyl)amide trifluoroacetate salt], for which the pKi was determined as 9.6.

`Cc1ccc2oc(C(=O)NC3(C(=O)N[C@H](Cc4ccccc4)C(=O)NCC4CCN(CC5CCOCC5)CC4)CCCC3)cc2c1` [Example 126, 5-Methyl-benzofuran-2-carboxylic acid [1-(2-phenyl-1R-([1-(tetrahydro-pyran-4-ylmethyl)-piperidin-4-ylmethyl]-carbamoyl}-ethylcarbamoyl)-cyclopentyl]-amide] gave a Ki of 0.158 nM.

The compound `NC1CCCCC1NC(=O)C1CCCC(NC(=O)C(Cc2ccccc2)NC(=O)C2(NC(=O)c3cc4ccccc4s3)CCCCC2)C1` (single isomer, unassigned) [Example 21] showed a Ki of 0.251 nM.

Compound `O=C(NC1(C(=O)N[C@H](Cc2ccccc2)C(=O)NCCC2CCN(C[C@@H]3CCCN3)CC2)CCCC1)c1ccc2cc(Br)ccc2c1` [Example 84, 6-Bromo-naphthalene-2-carboxylic acid (1-{2-phenyl-1(R)-[2-(1-pyrrolidin-2(S)-ylmethyl-piperidin-4-yl)ethylcarbamoyl]-ethylcarbamoyl}-cyclopentyl)amide TFA salt] gave an inhibition constant Ki of 0.316 nM. The Ki values of the last two compounds are within 1.5-fold of each other.

Compound `O=C(NC1(C(=O)N[C@H](Cc2ccccc2)C(=O)NCCC(=O)N2CCN(CC3COCOC3)CC2)CCCC1)c1cc2ccccc2s1` [Example 62, Benzo[b]thiophene-2-carboxylic acid (1-{1(R)-[3-(4-[1,3]dioxan-5-ylmethyl-piperazin-1-yl)3-oxo-propylcarbamoyl]-2-phenyl-ethylcarbamoyl}-cyclopentyl)-amide TFA salt] showed a Ki of 2 nM. Same read-out and setting: with `CC(C)(C)c1ccc2oc(C(=O)NC3(C(=O)N[C@H](Cc4ccccc4)C(=O)NCC4CCN(CC5CCOCC5)CC4)CCCC3)cc2c1` [Example 128, 5-tert-Butyl-benzofuran-2-carboxylic acid [1-(2-phenyl-1R-{[1-(tetrahydro-pyran-4-ylmethyl)-piperidin-4-ylmethyl]-carbamoyl}-ethylcarbamoyl)-cyclopentyl]-amide] the figure was 0.126 nM; with `C[C@@H]1CN(C(=O)CCNC(=O)[C@@H](Cc2ccccc2)NC(=O)C2(NC(=O)c3cc4ccccc4s3)CCCC2)C[C@H](C)N1` [Example 56, Benzo[b]thiophene-2-carboxylic acid (1-{1(R)-[3-(3,5-cis-dimethylpiperazin-1-yl)-3-oxo-propylcarbamoyl]-2-phenyl-ethylcarbamoyl}-cyclopentyl)-amide TFA salt], 1.58 nM. Compound `N[C@@H]1CCCC[C@@H]1NC(=O)C1CCCC(NC(=O)[C@@H](Cc2ccccc2)NC(=O)C2(NC(=O)c3cc4ccccc4s3)CCCC2)C1` (stereo partly drawn) [Example 30, acid-3-cis-N^γ{N^α[N^α(benzo[b]thiophen-2-ylcarbonyl)-1-aminocyclopentane-1-carboxy]-D-phenylalanil}aminocyclohexane-1-carboxylic-N-[(1S,2R)-aminocyclohexyl]amide] had a Ki of 0.1 nM. Compound `CC[C@@](C)(NC(=O)c1cc2ccccc2s1)C(=O)N[C@H](Cc1ccccc1)C(=O)N[C@H]1CC[C@@H](C(=O)N[C@H]2CCCC[C@@H]2N)C1.O=C(O)C(F)(F)F` [Example 14, N^γ{N^α[N^α(benzo[b]thiophen-2-ylcarbonyl)-(R)-α-methyl-α-ethylglycyl]-D-phenylalanyl}-(1R,3S)3-amino cyclopentane-1-carboxylic-acid-N-((1S,2S)-2-aminocyclohexyl) amide trifluoroacetate salt] showed a negative logarithm of the Ki (pKi) of 9.9.

Turning to `Cc1ccc(C[C@@H](NC(=O)C2(NC(=O)c3cc4ccccc4s3)CCCC2)C(=O)N[C@H]2CC[C@@H](C(=O)N[C@H]3CCCC[C@@H]3N(C)C)C2)cc1` [Example 9, N^γ{N^α[N^α(benzo[b]thiophen-2-ylcarbonyl)-1-aminocyclopentan-1-carboxy]-D-4-methyl-phenylalanyl}-(1R,3S)-3-aminocyclopentane-1-carboxylic-acid-N-(1S,2S)-2-dimethyl aminocyclohexyl)amide hydrochloride salt], the affinity corresponds to a Ki of 1.58 nM.
